Laboratory results from patent publication US9006487B2, “Amine-containing lipids and uses thereof” (Massachusetts Institute of Technology, priority 2005, dated 2015).

The molecules below were run on cos-7 cells (assay: DNA transfection: luciferase expression relative to Lipofectamine 2000). Conditions: lipid/DNA 2.5 w/w; 300 ng Luciferase DNA per well; luciferase assay after 48 hours.
Type: cell-based
Description: 14,000 cos-7 cells (ATCC, Manassas, Va.) were seeded into each well of a solid white or clear 96 well plate (Corning-Costar, Kennebunk, Me.) and allowed to attached overnight in growth medium, composed of: 500 ml phenol red minus DMEM, 50 ml heat inactivated FBS, 5 ml penicillin/streptomycin (Invitrogen, Carlsbad, Calif.).
A small liquot of lipid was tranferred to an Eppendorf tube. Based on the mass of the lipid in the tube, sterile 25 mM sodium acetate buffer was added to each tube to yield a concentration of 60 mg/ml. The resulting mixture was vortexed for approximately 20 minutes until the lipid was fully dissolved. DNA was prepared based on 300 ng DNA per well of a 96-well plate. 291 μg of Lc DNA was dissolved in 9210 μl of 25 mM sodium acetate buffer. Aliquots of 30 μl of DNA solution were added to each well expect for the last column which was reserved for the Lipo2000 standard. For the last column of the plate, 61 μg of DNA was added to 1940 μl Optimem. 150 μl of media/Optimem was added to each well of plates. 50 μl of lipid solution was aliquoted into wells of robot plate. The following amounts were aliquoted to obtain the correct ratios of DNA to lipid:
In quadruplicate, 30 μl of lipid was aliquoted onto DNA in four rows for each ratio. For the Lipo2000 control (2.5 w/w ratio to DNA), 152.5 μg of Lipo sample was aliquoted into 1847.5 μl of Optimem. 30 μl of this solution was aliquoted onto DNA in the Optimem in the last columns of each plate. The plates were incubated for 15-20 minutes, and then 36.5 μl of lipid+DNA complexes was transferred into 150 μl of media/Optimem, then add to cells. The media was aspirated off the cells, and 105 μl of the lipid/DNA/media/Optimem solution was added to the cells. The luciferase assay was performed after 48 hours.
Luminescence was analyzed using bright-glo assay kits (Promega). Briefly, 100 μl of bright-glo solution was added to each well of the microtiter plate containing media and cells. Luminescence was measured using a Mithras Luminometer (Berthold, Oak Ridge, Tenn.). In some cases, a neutral density filter (Chroma, Brattleboro, Vt.) was used to prevent saturation of the luminometer. A standard curve for Luciferase was generated by titration of Luciferase enzyme (Promega) into growth media in white microtiter plates. Luciferase in ng per well are calculated for each of the lipids at 2.5 w/w, 5 w/w, 10 w/w, 15 w/w, 20 w/w, and 25 w/w lipid to DNA based on the standard curve.
The table below summarizes the data as a % of the luciferase activity obtained from the use of Lipofectamine 2000. The table indicates the best lipids for transfection.

Point of comparison: `CCCCCCCCCCCCOC(=O)CCN(CCCN(C)C)CCC(=O)OCCCCCCCCCCCC` [LD80], “Luciferase expression as a percentage of that achieved using Lipofectamine 2000” value (shortened to “Luciferase expression as a percentage”) 0.1%. Against it:
- CCCCCCCCCCCCOC(=O)CCN(C)CCCN(C)CCC(=O)OCCCCCCCCCCCC [LD63] — higher, 0.7%
- CCCCCCCCCCCCOC(=O)CCN1CCCN(CCC(=O)OCCCCCCCCCCCC)CC1 [LD70] — the same, 0.1%
- CCCCCCCCCCCCOC(=O)CCN(CCC(=O)OCCCCCCCCCCCC)CCN(CC)CC [LD75] — the same, 0.1%
- CCCCCCCCCCCCOC(=O)CCN(CCC(=O)OCCCCCCCCCCCC)CCN1CCCC1 [LD76] — the same, 0.1%
- CCCCCCCCCCCCOC(=O)CCN(CCC(=O)OCCCCCCCCCCCC)CCC1CCCN1C (stereo not drawn) [LD77] — the same, 0.1%
- CCCCCCCCCCCCOC(=O)CCN(CCC(=O)OCCCCCCCCCCCC)C(C)CN(C)C (stereo not drawn) [LD79] — the same, 0.1%
- CCCCCCCCCCCCOC(=O)CCN(CCCN(CC)CC)CCC(=O)OCCCCCCCCCCCC [LD81] — the same, 0.1%
- CCCCCCCCCCCCOC(=O)CCN(CCC(=O)OCCCCCCCCCCCC)CCN1CCCCC1 [LD82] — the same, 0.1%

Same assay, conditions: lipid/DNA 5 w/w; 300 ng Luciferase DNA per well; luciferase assay after 48 hours

Point of comparison: `CCCCCCCCCCCCOC(=O)CCN(CCC(=O)OCCCCCCCCCCCC)CCN1CCCC1` [LD76], “Luciferase expression as a percentage” value 0.1%. Against it:
- CCCCCCCCCCCCOC(=O)CCN(C)CCCN(C)CCC(=O)OCCCCCCCCCCCC [LD63] — higher, 0.8%
- CCCCCCCCCCCCOC(=O)CCN1CCCN(CCC(=O)OCCCCCCCCCCCC)CC1 [LD70] — the same, 0.1%
- CCCCCCCCCCCCOC(=O)CCN(CCC(=O)OCCCCCCCCCCCC)CCN(CC)CC [LD75] — the same, 0.1%
- CCCCCCCCCCCCOC(=O)CCN(CCC(=O)OCCCCCCCCCCCC)CCC1CCCN1C (stereo not drawn) [LD77] — the same, 0.1%
- CCCCCCCCCCCCOC(=O)CCN(CCC(=O)OCCCCCCCCCCCC)C(C)CN(C)C (stereo not drawn) [LD79] — the same, 0.1%
- CCCCCCCCCCCCOC(=O)CCN(CCCN(C)C)CCC(=O)OCCCCCCCCCCCC [LD80] — the same, 0.1%
- CCCCCCCCCCCCOC(=O)CCN(CCCN(CC)CC)CCC(=O)OCCCCCCCCCCCC [LD81] — the same, 0.1%
- CCCCCCCCCCCCOC(=O)CCN(CCC(=O)OCCCCCCCCCCCC)CCN1CCCCC1 [LD82] — the same, 0.1%

Same assay, conditions: lipid/DNA 10 w/w; 300 ng Luciferase DNA per well; luciferase assay after 48 hours

Point of comparison: `CCCCCCCCCCCCOC(=O)CCN1CCCN(CCC(=O)OCCCCCCCCCCCC)CC1` [LD70], “Luciferase expression as a percentage” value 0.6%. Against it:
- CCCCCCCCCCCCOC(=O)CCN(C)CCCN(C)CCC(=O)OCCCCCCCCCCCC [LD63] — lower, 0.3%
- CCCCCCCCCCCCOC(=O)CCN(CCC(=O)OCCCCCCCCCCCC)CCN(CC)CC [LD75] — lower, 0.1%
- CCCCCCCCCCCCOC(=O)CCN(CCC(=O)OCCCCCCCCCCCC)CCN1CCCC1 [LD76] — lower, 0.2%
- CCCCCCCCCCCCOC(=O)CCN(CCC(=O)OCCCCCCCCCCCC)CCC1CCCN1C (stereo not drawn) [LD77] — higher, 6.9%
- CCCCCCCCCCCCOC(=O)CCN(CCC(=O)OCCCCCCCCCCCC)C(C)CN(C)C (stereo not drawn) [LD79] — lower, 0.1%
- CCCCCCCCCCCCOC(=O)CCN(CCCN(C)C)CCC(=O)OCCCCCCCCCCCC [LD80] — higher, 3.7%
- CCCCCCCCCCCCOC(=O)CCN(CCCN(CC)CC)CCC(=O)OCCCCCCCCCCCC [LD81] — higher, 15.2%
- CCCCCCCCCCCCOC(=O)CCN(CCC(=O)OCCCCCCCCCCCC)CCN1CCCCC1 [LD82] — lower, 0.2%

Same assay, conditions: lipid/DNA 15 w/w; 300 ng Luciferase DNA per well; luciferase assay after 48 hours

Point of comparison: `CCCCCCCCCCCCOC(=O)CCN(CCC(=O)OCCCCCCCCCCCC)CCN(CC)CC` [LD75], “Luciferase expression as a percentage” value 0.2%. Against it:
- CCCCCCCCCCCCOC(=O)CCN(C)CCCN(C)CCC(=O)OCCCCCCCCCCCC [LD63] — higher, 0.3%
- CCCCCCCCCCCCOC(=O)CCN1CCCN(CCC(=O)OCCCCCCCCCCCC)CC1 [LD70] — higher, 0.6%
- CCCCCCCCCCCCOC(=O)CCN(CCC(=O)OCCCCCCCCCCCC)CCN1CCCC1 [LD76] — higher, 0.3%
- CCCCCCCCCCCCOC(=O)CCN(CCC(=O)OCCCCCCCCCCCC)CCC1CCCN1C (stereo not drawn) [LD77] — higher, 11.1%
- CCCCCCCCCCCCOC(=O)CCN(CCC(=O)OCCCCCCCCCCCC)C(C)CN(C)C (stereo not drawn) [LD79] — the same, 0.2%
- CCCCCCCCCCCCOC(=O)CCN(CCCN(C)C)CCC(=O)OCCCCCCCCCCCC [LD80] — higher, 6.5%
- CCCCCCCCCCCCOC(=O)CCN(CCCN(CC)CC)CCC(=O)OCCCCCCCCCCCC [LD81] — higher, 7.6%
- CCCCCCCCCCCCOC(=O)CCN(CCC(=O)OCCCCCCCCCCCC)CCN1CCCCC1 [LD82] — higher, 0.3%

Same assay, conditions: lipid/DNA 20 w/w; 300 ng Luciferase DNA per well; luciferase assay after 48 hours

Point of comparison: `CCCCCCCCCCCCOC(=O)CCN(CCCN(CC)CC)CCC(=O)OCCCCCCCCCCCC` [LD81], “Luciferase expression as a percentage” value 5.4%. Against it:
- CCCCCCCCCCCCOC(=O)CCN(C)CCCN(C)CCC(=O)OCCCCCCCCCCCC [LD63] — lower, 0.4%
- CCCCCCCCCCCCOC(=O)CCN1CCCN(CCC(=O)OCCCCCCCCCCCC)CC1 [LD70] — lower, 0.6%
- CCCCCCCCCCCCOC(=O)CCN(CCC(=O)OCCCCCCCCCCCC)CCN(CC)CC [LD75] — lower, 0.2%
- CCCCCCCCCCCCOC(=O)CCN(CCC(=O)OCCCCCCCCCCCC)CCN1CCCC1 [LD76] — lower, 0.2%
- CCCCCCCCCCCCOC(=O)CCN(CCC(=O)OCCCCCCCCCCCC)CCC1CCCN1C (stereo not drawn) [LD77] — higher, 6.4%
- CCCCCCCCCCCCOC(=O)CCN(CCC(=O)OCCCCCCCCCCCC)C(C)CN(C)C (stereo not drawn) [LD79] — lower, 0.3%
- CCCCCCCCCCCCOC(=O)CCN(CCCN(C)C)CCC(=O)OCCCCCCCCCCCC [LD80] — higher, 7.1%
- CCCCCCCCCCCCOC(=O)CCN(CCC(=O)OCCCCCCCCCCCC)CCN1CCCCC1 [LD82] — lower, 0.4%

Same assay, conditions: lipid/DNA 25 w/w; 300 ng Luciferase DNA per well; luciferase assay after 48 hours

Point of comparison: `CCCCCCCCCCCCOC(=O)CCN(CCC(=O)OCCCCCCCCCCCC)CCC1CCCN1C` (stereo not drawn) [LD77], “Luciferase expression as a percentage” value 2.9%. Against it:
- CCCCCCCCCCCCOC(=O)CCN(C)CCCN(C)CCC(=O)OCCCCCCCCCCCC [LD63] — lower, 0.6%
- CCCCCCCCCCCCOC(=O)CCN1CCCN(CCC(=O)OCCCCCCCCCCCC)CC1 [LD70] — lower, 0.6%
- CCCCCCCCCCCCOC(=O)CCN(CCC(=O)OCCCCCCCCCCCC)CCN(CC)CC [LD75] — lower, 0.2%
- CCCCCCCCCCCCOC(=O)CCN(CCC(=O)OCCCCCCCCCCCC)CCN1CCCC1 [LD76] — lower, 0.4%
- CCCCCCCCCCCCOC(=O)CCN(CCC(=O)OCCCCCCCCCCCC)C(C)CN(C)C (stereo not drawn) [LD79] — lower, 0.2%
- CCCCCCCCCCCCOC(=O)CCN(CCCN(C)C)CCC(=O)OCCCCCCCCCCCC [LD80] — lower, 2.1%
- CCCCCCCCCCCCOC(=O)CCN(CCCN(CC)CC)CCC(=O)OCCCCCCCCCCCC [LD81] — lower, 2.3%
- CCCCCCCCCCCCOC(=O)CCN(CCC(=O)OCCCCCCCCCCCC)CCN1CCCCC1 [LD82] — lower, 0.7%
